Measurements taken from US12428380B2 (PSYLO PTY LTD, priority 2023, dated 2025).

Columns and labels:
5-HT2A = target: T1, 5-HT2A (Homo sapiens, UniProt P28223); experiment: FLIPR Ca2+ flux functional assay, 5-HT2A (HEK293); type: cell-based; details: HEK293 cells expressing 5-HT2A; for Emax: HEK293, agonist activity; for EC50: agonist activity
T1 construct: host or cells: HEK293

5-HT2C = target: T2, 5-HT2C (Homo sapiens, UniProt P28335); experiment: FLIPR Ca2+ flux functional assay, 5-HT2C (HEK293); type: cell-based; details: HEK293 cells expressing 5-HT2C; for Emax: HEK293, agonist activity
T2 construct: host or cells: HEK293
T2 sequence (P28335 33-458): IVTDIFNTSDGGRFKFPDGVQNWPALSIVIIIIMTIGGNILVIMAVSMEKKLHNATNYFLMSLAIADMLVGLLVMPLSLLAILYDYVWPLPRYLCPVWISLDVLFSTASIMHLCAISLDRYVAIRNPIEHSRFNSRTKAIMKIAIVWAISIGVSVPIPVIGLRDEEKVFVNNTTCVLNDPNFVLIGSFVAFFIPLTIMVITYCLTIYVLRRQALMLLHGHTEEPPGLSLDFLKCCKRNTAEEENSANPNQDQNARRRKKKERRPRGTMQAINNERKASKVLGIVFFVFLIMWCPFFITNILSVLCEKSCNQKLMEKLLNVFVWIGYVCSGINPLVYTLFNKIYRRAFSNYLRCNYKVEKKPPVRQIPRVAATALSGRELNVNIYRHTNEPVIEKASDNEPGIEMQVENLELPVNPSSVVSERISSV

5-HT2B [1] = target: T3, 5-HT2B (Homo sapiens, UniProt P41595); experiment: Activation in a similar Ca2+ flux assay at a single concentration, 5-HT2B; type: cell-based; details: head prints 10 µM
T3 construct: host or cells: CHO-K1
T3 sequence (P41595 whole entry, species assumed): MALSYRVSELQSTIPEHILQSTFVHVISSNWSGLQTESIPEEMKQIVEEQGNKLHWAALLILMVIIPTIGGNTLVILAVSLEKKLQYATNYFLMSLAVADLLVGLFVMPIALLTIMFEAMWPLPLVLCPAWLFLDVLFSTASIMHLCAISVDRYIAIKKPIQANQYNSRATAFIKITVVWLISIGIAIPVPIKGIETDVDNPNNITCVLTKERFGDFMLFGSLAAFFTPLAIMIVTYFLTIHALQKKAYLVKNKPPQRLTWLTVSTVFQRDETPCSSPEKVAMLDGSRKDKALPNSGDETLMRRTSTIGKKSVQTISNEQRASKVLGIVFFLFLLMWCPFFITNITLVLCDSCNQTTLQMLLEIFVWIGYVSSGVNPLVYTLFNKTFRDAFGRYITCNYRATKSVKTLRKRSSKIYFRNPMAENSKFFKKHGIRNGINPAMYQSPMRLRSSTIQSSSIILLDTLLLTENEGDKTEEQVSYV
Description: Activity at 5-HT2A, 5-HT2B and 5-HT2C receptors was determined using a FLIPR Ca2+ flux assay at WuXi AppTec Co. Ltd. (Hong Kong) Discovery Biology Unit according to their standard protocols. Briefly, stably transfected cells expressing the receptor of interest (HEK293 for 5-HT2A and 5-HT2C; CHO-K1 for 5-HT2B) were grown and plated in a 384 well plate and incubated at 37° C. and 5% CO2 overnight. A 250 mM stock solution of probenecid in FLIPR calcium assay buffer (10 mL) was freshly prepared and combined with a fluorescent dye (Fluo-4 Direct) to give a final assay concentration of 2.5 mM. Reference compounds were 4-fold serially diluted and the screening compounds were 3-fold serially diluted in 100% DMSO for 10 points using Agilent Bravo, and 750 nL was added to a 384 well compound plate using Echo along with 30 μL assay buffer. The fluorescent dye was then added to the assay plate along with assay buffer to a final volume of 40 μL. The cell plate was incubated for 50 min at 37° C. and 5% CO2 and placed into the FLIPR Tetra along with the compound plate. 10 μL of references and compounds were then transferred from the compound plate into the cell plate and the fluorescent signal was read.
Activation data are provided in a similar assay tested at a single 10 μM concentration.

ICR mice = experiment: Acute restraint stress - tail suspension test (Example 51a); type: in vivo, mouse; details: male ICR mice after 5 h acute restraint stress, IP, tested 10 min after treatment, FIGS. 6 and 7
Description: Male ICR mice (23±3 g) were purchased from BioLASCO (Taipei, Taiwan) at 4-5 weeks of age and allowed 5-7 days to acclimate to the animal research facility at Pharmacology Discovery Services (Taipei, Taiwan). Mice were housed in groups of 10 in a large cage (47×25×15 cm) on a 12-hour light cycle (lights on: 0700) and provided ad libitum food and water except during acute restraint stress and tail-suspension testing. Temperature was maintained at 20-24° C., and all rooms (colony and testing rooms) had similar lighting intensity. […] All experiments were conducted between 0900 to 1700 local time, during the light phase. […]
Tail Suspension Test (TST) Procedure: Mice were individually suspended on the edge of a shelf, 58 cm above a tabletop, using adhesive tape placed approximately 1 cm from the tip of the tail, for a total duration of 7 minutes. Using a stopwatch, the experimenters blinded to treatment groups recorded the duration of immobility (defined as hanging passively and motionless) during the 5 minutes spanning from 2-7 minutes. The data from 0-2 minutes was not recorded. […]

5-HT2B [2] = target: T3, 5-HT2B; experiment: FLIPR Ca2+ flux functional assay, 5-HT2B (CHO-K1); type: cell-based; details: CHO-K1 cells expressing 5-HT2B; for Emax: CHO-K1, agonist activity

T1 sequence (P28223 whole entry): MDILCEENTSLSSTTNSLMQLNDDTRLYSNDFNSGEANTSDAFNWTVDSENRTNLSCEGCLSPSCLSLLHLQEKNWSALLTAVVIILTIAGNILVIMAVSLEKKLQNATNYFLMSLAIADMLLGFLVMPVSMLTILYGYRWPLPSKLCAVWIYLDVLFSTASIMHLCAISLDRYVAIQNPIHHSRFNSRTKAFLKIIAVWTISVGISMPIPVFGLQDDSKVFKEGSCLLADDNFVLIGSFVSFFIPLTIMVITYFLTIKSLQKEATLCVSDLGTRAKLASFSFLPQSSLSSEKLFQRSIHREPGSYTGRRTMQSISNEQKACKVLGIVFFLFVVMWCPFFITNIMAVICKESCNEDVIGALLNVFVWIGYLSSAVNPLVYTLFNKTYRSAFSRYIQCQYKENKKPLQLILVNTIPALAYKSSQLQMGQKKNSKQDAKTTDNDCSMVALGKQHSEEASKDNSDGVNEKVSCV

SMILES	Emax (5-HT2A) [%]	EC50 (5-HT2A) [nM]	Emax (5-HT2C) [%]	EC50 (5-HT2C; agonist activity) [nM]	5-HT2B % Activation @ 10 µM (5-HT2B [1]) [%]	immobility time in tail suspension test (ICR mice)	5-HT2B Emax (5-HT2B [2]; agonist activity) [%]	5-HT2C Emax (5-HT2C; agonist activity) [%]	Emax (5-HT2B [2]) [%]
COc1cc2c(CCN(C)C)n[nH]c2cc1F [Example A5, 2-(6-fluoro-5-methoxy-1H-indazol-3-yl)-N,N-dimethylethan-1-amine]	87	44.1	105	281	44	decrease the immobility time			
CN(C)CCc1n[nH]c2c(F)cccc12 [Example A67, 2-(7-fluoro-1H-indazol-3-yl)-N,N-dimethylethan-1-amine]	63	422	37	1670	0				
CCN(C)CCc1n[nH]c2c(F)cccc12 [Example A68, N-ethyl-2-(7-fluoro-1H-indazol-3-yl)-N-methylethan-1-amine]	40	469	32	1920	0				
CN(C)CCc1n[nH]c2ccc(F)c(F)c12 [Example A69, 2-(4,5-difluoro-1H-indazol-3-yl)-N,N-dimethylethan-1-amine]	79	276	62	132	5				
CCN(C)CCc1n[nH]c2ccc(F)c(F)c12 [Example A70, 2-(4,5-difluoro-1H-indazol-3-yl)-N-ethyl-N-methylethan-1-amine]	78	383	76	226	0				
Fc1ccc2[nH]nc(CCN3CCCC3)c2c1F [Example A73, 4,5-difluoro-3-(2-(pyrrolidin-1-yl)ethyl)-1H-indazole]	87	768	70	1780	18				
COc1ccccc1CNCCc1n[nH]c2ccc(F)c(F)c12 [Example A74, 2-(4,5-difluoro-1H-indazol-3-yl)-N-(2-methoxybenzyl)ethan-1-amine]	89	59.5	95	133	0				
CN(C)CCc1n[nH]c2cccc(O)c12 [Example P-6]	66.4	43.1					0.34	−0.79	
CN(C)CCc1n[nH]c2ccccc12 [Example P-7]	-0.3		40.2						0.17
COc1ccc2[nH]nc(CCN(C)C)c2c1 [Example P-8, 2-(5-methoxy-1H-indazol-3-yl)-N,N-dimethylethan-1-amine]	70		72.4			decrease the immobility time			17.9
CCN(CC)CCc1n[nH]c2cccc(OC)c12 [Example P-42, 2-(4-methoxy-1H-indazol-3-yl)-N,N-diethylethan-1-amine]	68.8		70.5						0.24
CCN(CC)CCc1n[nH]c2cccc(O)c12 [Example P-43, 3-(2-(diethylamino)ethyl)-1H-indazol-4-ol]	38.9		28.8						8.01
CCCN(CCC)CCc1n[nH]c2cccc(OC)c12 [Example P-44, 2-(4-methoxy-1H-indazol-3-yl)-N,N-dipropylethan-1-amine]	97.6		77.2						39.4
CCCN(CCC)CCc1n[nH]c2cccc(O)c12 [Example P-45, 3-(2-(dipropylamino)ethyl)-1H-indazol-4-ol]	100		40.2						8.93
CCN(CC)CCc1n[nH]c2ccc(OC)cc12 [Example P-48, N,N-diethyl-2-(5-methoxy-1H-indazol-3-yl)ethan-1-amine]	58.6		4.22						16.1
CCCN(CCC)CCc1n[nH]c2ccc(OC)cc12 [Example P-49, N,N-dipropyl-2-(5-methoxy-1H-indazol-3-yl)ethan-1-amine]	67.6		-0.46						30.7
CCN(C)CCc1n[nH]c2ccc(OC)cc12 [Example P-51, N-ethyl-2-(5-methoxy-1H-indazol-3-yl)-N-methylethan-1-amine]	79.1		24.6						30.9
COc1ccc2[nH]nc(CCN(C)C(C)C)c2c1 [Example P-52, N-(2-(5-methoxy-1H-indazol-3-yl)ethyl)-N-methylpropan-2-amine]	77.3		0.09						0.22
COc1cccc2[nH]nc(CCN(C)C)c12 [Example P-55, 2-(4-methoxy-1H-indazol-3-yl)-N,N-dimethylethan-1-amine]	58.7		83.6						1.35
